Where “and” joins values, the source holds several entries; their conditions need not be identical. Identical values can stand only once. Inconclusive results and toxic doses are left out.

The subject of the experiment is P388 leukemia ip, CD2F1 mice, survival T/C. Nature of the experiment: NCI In Vivo Anticancer Drug Screen. Data for tumor model P388 Leukemia (intraperitoneal) in CD2F1 (CDF1) mice. The conditions noted are these: endpoint: median survival time, higher = longer survival. The procedure, abridged: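 Mice carrying the transplanted tumor received test compound or vehicle. Survival was recorded in each group, and the value is the treated-group measurement divided by that of the vehicle-treated control group.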

[1] abbreviates: dose: 50.0 mg/kg/injection, schedule: Q01DX005 (ip), vehicle: saline with Tween-80.
The mark [2] stands for this setting: dose: 100.0 mg/kg/injection, schedule: Q01DX005 (ip), vehicle: saline with Tween-80.
The mark [3] stands for this setting: dose: 200.0 mg/kg/injection, schedule: Q01DX005 (ip), vehicle: saline with Tween-80.
Where [4] appears, read: dose: 50.0 mg/kg/injection, schedule: Q01DX009 (ip), vehicle: saline with Tween-80.
The mark [5] stands for this setting: dose: 100.0 mg/kg/injection, schedule: Q01DX009 (ip), vehicle: saline with Tween-80.
Where [6] appears, read: dose: 200.0 mg/kg/injection, schedule: Q01DX009 (ip), vehicle: saline with Tween-80.
The mark [7] stands for this setting: dose: 60.0 mg/kg/injection, schedule: Q01DX005 (ip), vehicle: saline with Tween-80.
Where [8] appears, read: dose: 120.0 mg/kg/injection, schedule: Q01DX005 (ip), vehicle: saline with Tween-80.
[9] abbreviates: dose: 240.0 mg/kg/injection, schedule: Q01DX005 (ip), vehicle: saline with Tween-80.
The mark [10] stands for this setting: dose: 25.0 mg/kg/injection, schedule: Q01DX009 (ip), vehicle: saline.
Where [11] appears, read: dose: 50.0 mg/kg/injection, schedule: Q01DX009 (ip), vehicle: saline.
The mark [12] stands for this setting: dose: 100.0 mg/kg/injection, schedule: Q01DX009 (ip), vehicle: saline.
Where [13] appears, read: dose: 100.0 mg/kg/injection, schedule: Q04DX003 (ip), vehicle: saline with Tween-80.
[14] abbreviates: dose: 200.0 mg/kg/injection, schedule: Q04DX003 (ip), vehicle: saline with Tween-80.
Setting [15] is: dose: 400.0 mg/kg/injection, schedule: Q04DX003 (ip), vehicle: saline with Tween-80.
Where [16] appears, read: dose: 200.0 mg/kg/injection, schedule: Q01DX009 (ip), vehicle: saline.
The mark [17] stands for this setting: dose: 100.0 mg/kg/injection, schedule: Q04DX003 (ip), vehicle: Klucel (hydroxypropylcellulose) (HPC).
[18] abbreviates: dose: 200.0 mg/kg/injection, schedule: Q04DX003 (ip), vehicle: Klucel (hydroxypropylcellulose) (HPC).
Setting [19] is: dose: 400.0 mg/kg/injection, schedule: Q04DX003 (ip), vehicle: Klucel (hydroxypropylcellulose) (HPC).
The mark [20] stands for this setting: dose: 12.5 mg/kg/injection, schedule: Q01DX009 (ip), vehicle: saline.

Take `Cc1cc(O)cc(O)c1C(=O)OC1CC2(C)C3CC(C)(C)CC3C=C(C=O)C12O` (configuration not stated): the T/C runs as follows: (dose: 1.5 mg/kg/injection, schedule: Q01DX005 (ip), vehicle: Klucel + Tween-80) 107 % of control; (dose: 3.0 mg/kg/injection, schedule: Q01DX005 (ip), vehicle: Klucel + Tween-80) 97 % of control; (dose: 6.0 mg/kg/injection, schedule: Q01DX005 (ip), vehicle: Klucel + Tween-80) 103 % of control; (dose: 12.0 mg/kg/injection, schedule: Q01DX005 (ip), vehicle: Klucel + Tween-80) 99 % of control.

`ClC1=C(Cl)C2(Cl)C=CC1(Cl)C2`: the T/C is, setting by setting: under setting [1], 106 % of control; under setting [2], 106 % of control; under setting [3], 108 % of control.

Turning to `O=C1c2ccccc2-c2nc3ccccc3n21`, the T/C is 100 % of control (dose: 100.0 mg/kg/injection, schedule: Q01DX001 (ip), vehicle: saline); 100 % of control (dose: 100.0 mg/kg/injection, schedule: Q04DX002 (ip), vehicle: saline with Tween-80); 108 % of control (dose: 200.0 mg/kg/injection, schedule: Q01DX001 (ip), vehicle: saline); 106 % of control (dose: 200.0 mg/kg/injection, schedule: Q04DX002 (ip), vehicle: saline with Tween-80); 106 % of control (dose: 400.0 mg/kg/injection, schedule: Q01DX001 (ip), vehicle: saline); 100 % of control (dose: 400.0 mg/kg/injection, schedule: Q04DX002 (ip), vehicle: saline with Tween-80).

`FC(F)C(F)(F)C(F)(F)C(F)(F)COCC1(COCC(F)(F)C(F)(F)C(F)(F)C(F)F)COC1`: the T/C under setting [4] was 100 % of control, the T/C under setting [5] was 106 % of control and the T/C under setting [6] is 109 % of control.

Take `CN(C)CCN1C(=O)c2c(c3cccn3c3c2cnn3-c2ccccc2)C1=O`: the T/C under setting [7] is 100 % of control, the T/C under setting [8] is 102 % of control and the T/C under setting [9] is 100 % of control.

For the compound `COC(=O)C1=C(\N2CCCC2)CC(C)(C)CC(=O)/C=C\1C(=O)OC`, the T/C reads like this: (dose: 50.0 mg/kg/injection, schedule: Q01DX005 (ip), vehicle: Klucel (hydroxypropylcellulose) (HPC)) 92 % of control; (dose: 100.0 mg/kg/injection, schedule: Q01DX005 (ip), vehicle: Klucel (hydroxypropylcellulose) (HPC)) 93 % of control; (dose: 200.0 mg/kg/injection, schedule: Q01DX005 (ip), vehicle: Klucel (hydroxypropylcellulose) (HPC)) 104 % of control.

Take `O=P(O)(O)O.[Cr+3].[NH-]CC[NH-].[NH-]CC[NH-].[NH-]CC[NH-]`: the T/C was 101 % of control under setting [10], 97 % of control under setting [11] and 99 % of control under setting [12].

As for `CC1(C)OC2(C)CCC1C1C2N1C(=O)Nc1cccc2ccccc12` (configuration not stated), the T/C was 99 % of control under setting [1], 97 % of control under setting [2] and 93 % of control under setting [3].

For the compound `CCOC(=O)[C@]12CCC[C@@]1(O)NC(=O)c1cnccc12`, the T/C runs as follows: under setting [13], 100 % of control; under setting [14], 97 % of control; under setting [15], 93 % of control.

In the case of `CN1C(c2ccccc2)=C(C#N)C(=O)CC(c2ccco2)N1C` (configuration not stated), the T/C by setting is: under setting [7], 98 % of control; under setting [8], 92 % of control; under setting [9], 89 % of control.

With `CC1(C)N=C(N)N=C(N)N1c1ccc(CCc2ccccc2)cc1`, the T/C was 87 % of control (dose: 37.5 mg/kg/injection, schedule: Q04DX003 (ip), vehicle: saline with Tween-80); 100 % of control (dose: 75.0 mg/kg/injection, schedule: Q04DX003 (ip), vehicle: saline with Tween-80); 120 % of control (dose: 100.0 mg/kg/injection, schedule: Q04DX003 (ip), vehicle: saline); 100 % of control (dose: 200.0 mg/kg/injection, schedule: Q04DX003 (ip), vehicle: saline).

On to `O=C(CNC(=O)c1ccccc1)OC(C(=O)O)c1ccc(F)cc1` (configuration not stated), for which the T/C runs as follows: under setting [4], 100 % of control; under setting [5], 102 % of control; under setting [6], 96 % of control.

As for `CCCCCCCCCCCC(=O)NN`, the T/C reads like this: under setting [4], 95 % of control; under setting [13], 100 % of control; under setting [14], 100 % of control.

For the compound `O=C(c1ccc(F)cc1)C1CCN(CCCn2c(=O)[nH]c3ccccc32)CC1`, the T/C is 100 % of control under setting [11], 101 % of control under setting [12] and 100 % of control under setting [16].

Consider `O=C(O)c1cc2sccc2c(=O)[nH]1`, for which the T/C under setting [17] is 102 % of control, the T/C under setting [18] is 113 % of control and the T/C under setting [19] was 103 % of control.

Take `O=C1OC(=O)C2C3C=CC(C12)C1C2C(=O)OC(=O)C2C31` (configuration not stated): the T/C by setting is: under setting [13], 103 % of control; under setting [14], 99 % of control; under setting [15], 96 % of control; (dose: 600.0 mg/kg/injection, schedule: Q04DX003 (ip), vehicle: saline with Tween-80) 96 % of control.

For `CCOC(=O)Nc1cc2c(c(N)n1)N=C(c1ccc(N)cc1)CN2`, the T/C (dose: 25.0 mg/kg/injection, schedule: Q01DX001 (ip), vehicle: saline) is 117 % of control.

Regarding `O=C(NN1CCCCC1)NN1CCCCC1`, the T/C reads like this: under setting [1], 101 % of control; under setting [2], 100 % of control; under setting [3], 100 % of control.

On to `COc1cc(C[C@H](CO)[C@@H](CO)Cc2ccc3c(c2)OCO3)cc(OC)c1OC`, for which the T/C is 95 % of control (dose: 6.25 mg/kg/injection, schedule: Q04DX002 (ip), vehicle: saline with Tween-80); 102 % of control (dose: 12.5 mg/kg/injection, schedule: Q04DX002 (ip), vehicle: saline with Tween-80); 106 % of control (dose: 25.0 mg/kg/injection, schedule: Q04DX002 (ip), vehicle: saline with Tween-80).

As to `CCCCCCCCCCCCCCC[N+]1([O-])CCCCC1`, the T/C was 101 % of control under setting [20]; 95 % of control under setting [10]; 99 % of control and 101 % of control under setting [11].

Take `OCc1ccn2c1C(O)CC2` (configuration not stated): the T/C reads like this: under setting [20], 124 % of control; under setting [11], 113 % of control; under setting [12], 201 % of control; under setting [16], 157 % of control.

Regarding `C=CCNc1nc(-c2ccc(OC)c(OC)c2)cs1`, the T/C is 100 % of control under setting [17], 103 % of control under setting [18] and 100 % of control under setting [19].

Regarding `Oc1ccc2c(c1)OC1(c3ccccc3)CC2N=CN1` (configuration not stated), the T/C is 103 % of control under setting [20]; 95 % of control under setting [10]; 107 % of control under setting [11]; 98 % of control and 92 % of control (dose: 50.0 mg/kg/injection, schedule: Q01DX009 (ip), vehicle: suspension in saline); 98 % of control and 92 % of control (dose: 100.0 mg/kg/injection, schedule: Q01DX009 (ip), vehicle: suspension in saline); 99 % of control (dose: 200.0 mg/kg/injection, schedule: Q01DX009 (ip), vehicle: suspension in saline).

As to `COc1ccc2c(c1)C(Br)CCCC2=O` (configuration not stated), the T/C (dose: 400.0 mg/kg/injection, schedule: Q01DX009 (ip), vehicle: distilled water + alcohol) is 106 % of control.

With `CSc1nc(N)n2nc(C3CC3)cc2n1`, the T/C is 102 % of control under setting [7], 100 % of control under setting [8] and 100 % of control under setting [9].

Regarding `C/C(=N\N1CN(C(C)C(=O)O)P(N(CCO)CCO)N=C1N)c1cccs1` (configuration not stated), the T/C by setting is: (dose: 7.5 mg/kg/injection, schedule: Q01DX005 (ip), vehicle: saline) 98 % of control; (dose: 15.0 mg/kg/injection, schedule: Q01DX005 (ip), vehicle: saline) 101 % of control; (dose: 30.0 mg/kg/injection, schedule: Q01DX005 (ip), vehicle: saline) 98 % of control.

For `BrC1=NOC2c3cccc4cccc(c34)C12` (configuration not stated), the T/C under setting [7] is 108 % of control, the T/C under setting [8] is 106 % of control and the T/C under setting [9] was 105 % of control.
